Data taken from US10988459B2 (priority 2015, dated 2021).
pKi: −log10 of the molar value.

target: human RIP1 kinase domain (2-375) (Homo sapiens (Human), UniProt Q13546); experiment: biochemical; assay type: biochemical; details: human RIP1 kinase domain (2-375), Transcreener ADP assay, 50 uM ATP, 2 hours incubation; read-out: RIP1 Ki
Summary of the method: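 50 nM purified kinase domain from baculovirus-infected insect cells, incubated 2 h with compound in 50 mM Hepes pH 7.5, 30 mM MgCl2, 1 mM DTT, 50 uM ATP, 0.002% Brij-35, 0.5% DMSO. ADP formation read by Transcreener FP at 633 nm excitation. Ki^app fitted with the Morrison tight-binding equation.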

Chain of human RIP1 kinase domain (2-375) (Q13546 2-375): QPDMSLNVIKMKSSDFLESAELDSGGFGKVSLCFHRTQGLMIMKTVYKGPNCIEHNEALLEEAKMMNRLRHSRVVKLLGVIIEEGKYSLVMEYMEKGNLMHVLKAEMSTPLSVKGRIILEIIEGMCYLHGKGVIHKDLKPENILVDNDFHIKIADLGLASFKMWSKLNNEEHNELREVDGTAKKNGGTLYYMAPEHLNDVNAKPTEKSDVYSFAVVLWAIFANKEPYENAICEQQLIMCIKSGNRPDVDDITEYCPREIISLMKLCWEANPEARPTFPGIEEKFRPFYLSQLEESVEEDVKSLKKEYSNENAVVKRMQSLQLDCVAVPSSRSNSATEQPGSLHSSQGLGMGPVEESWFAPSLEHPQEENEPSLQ

pKi | SMILES
5.96 | CC[C@@]1(C)OCc2cnc(C(=O)N[C@H]3CCn4nc(C)cc4N(C)C3=O)cc21 [Example 275, (R)—N—((S)-2,4-dimethyl-5-oxo-5,6,7,8-tetrahydro-4H-pyrazolo[1,5-a][1,3]diazepin-6-yl)-1-ethyl-1-methyl-1,3-dihydrofuro[3,4-c]pyridine-6-carboxamide]
7.03 | CC[C@@]1(C)OCc2cnc(C(=O)N[C@H]3CCn4nc(C)c(C)c4N(C)C3=O)cc21 [Example 276, (R)-1-ethyl-1-methyl-N—((S)-2,3,4-trimethyl-5-oxo-5,6,7,8-tetrahydro-4H-pyrazolo[1,5-a][1,3]diazepin-6-yl)-1,3-dihydrofuro[3,4-c]pyridine-6-carboxamide]
6.29 | Cc1ccc(Cn2cnc(C(=O)NC3CCn4nc(C5CC5)cc4N(C)C3=O)n2)cn1 (stereo not shown) [Example 278, N-(2-cyclopropyl-4-methyl-5-oxo-5,6,7,8-tetrahydro-4H-pyrazolo[1,5-a][1,3]diazepin-6-yl)-1-((6-methylpyridin-3-yl)methyl)-1H-1,2,4-triazole-3-carboxamide]
5.85 | Cc1cc2n(n1)CC[C@H](NC(=O)c1cc3c(cn1)COC3(C)C1CC1)C(=O)N2C (stereo partly drawn) [Example 287, 1-cyclopropyl-N—((S)-2,4-dimethyl-5-oxo-5,6,7,8-tetrahydro-4H-pyrazolo[1,5-a][1,3]diazepin-6-yl)-1-methyl-1,3-dihydrofuro[3,4-c]pyridine-6-carboxamide]
6.40 | Cc1cc2n(n1)CC[C@H](NC(=O)c1ncn(CC3(C)CC3)n1)C(=O)N2C [Example 289, (S)—N-(2,4-dimethyl-5-oxo-5,6,7,8-tetrahydro-4H-pyrazolo[1,5-a][1,3]diazepin-6-yl)-1-((1-methylcyclopropyl)methyl)-1H-1,2,4-triazole-3-carboxamide]
6.25 | CC[C@@]1(C)OCc2cnc(C(=O)NC3CCn4cncc4N(C)C3=O)cc21 (stereo partly drawn) [Example 294, (1R)-1-ethyl-1-methyl-N-(1-methyl-2-oxo-2,3,4,5-tetrahydro-1H-imidazo[1,5-a][1,3]diazepin-3-yl)-1,3-dihydrofuro[3,4-c]pyridine-6-carboxamide]
7.98 | Cc1cc2n(n1)CC[C@H](NC(=O)c1ncn(Cc3c(F)cccc3F)n1)C(=O)N2C [Example 301, (S)-1-(2,6-difluorobenzyl)-N-(2,4-dimethyl-5-oxo-5,6,7,8-tetrahydro-4H-pyrazolo[1,5-a][1,3]diazepin-6-yl)-1H-1,2,4-triazole-3-carboxamide]
7.73 | CN1C(=O)[C@@H](NC(=O)c2ncn(Cc3cc(F)cc(F)c3)n2)CCn2nc(C3CC3)cc21 [Example 303, (S)—N-(2-cyclopropyl-4-methyl-5-oxo-5,6,7,8-tetrahydro-4H-pyrazolo[1,5-a][1,3]diazepin-6-yl)-1-(3,5-difluorobenzyl)-1H-1,2,4-triazole-3-carboxamide]
7.99 | CN1C(=O)[C@@H](NC(=O)c2ncn(Cc3cc(F)ccc3F)n2)CCn2nc(C3CC3)cc21 [Example 304, (S)—N-(2-cyclopropyl-4-methyl-5-oxo-5,6,7,8-tetrahydro-4H-pyrazolo[1,5-a][1,3]diazepin-6-yl)-1-(2,5-difluorobenzyl)-1H-1,2,4-triazole-3-carboxamide]
7.82 | Cc1cc2n(n1)CC[C@H](NC(=O)c1ncn(Cc3cc(F)ccc3F)n1)C(=O)N2C [Example 305, (S)-1-(2,5-difluorobenzyl)-N-(2,4-dimethyl-5-oxo-5,6,7,8-tetrahydro-4H-pyrazolo[1,5-a][1,3]diazepin-6-yl)-1H-1,2,4-triazole-3-carboxamide]

The remaining lines, values behind:

SMILES | pKi
CN1C(=O)[C@@H](NC(=O)c2nnn3c2CC(C(F)(F)C(F)(F)F)CC3)COc2ccccc21 (stereo partly drawn) [Example 277, N—((S)-5-methyl-4-oxo-2,3,4,5-tetrahydrobenzo[b][1,4]oxazepin-3-yl)-5-(perfluoroethyl)-4,5,6,7-tetrahydro-[1,2,3]triazolo[1,5-a]pyridine-3-carboxamide] | 7.62
CN1C(=O)[C@@H](NC(=O)c2n[nH]c3ncc(C(F)(F)F)cc23)COc2ccccc21 [Example 279, (S)—N-(5-methyl-4-oxo-2,3,4,5-tetrahydrobenzo[b][1,4]oxazepin-3-yl)-5-(trifluoromethyl)-1H-pyrazolo[3,4-b]pyridine-3-carboxamide] | 7.01
Cc1nn2c(c1C)N(C)C(=O)[C@@H](NC(=O)c1ncn(Cc3ccc(F)cc3F)n1)CC2 [Example 280, (S)-1-(2,4-difluorobenzyl)-N-(2,3,4-trimethyl-5-oxo-5,6,7,8-tetrahydro-4H-pyrazolo[1,5-a][1,3]diazepin-6-yl)-1H-1,2,4-triazole-3-carboxamide] | 7.29
Cc1nn2c(c1C)N(C)C(=O)[C@@H](NC(=O)c1ncn(Cc3ccc(F)cc3)n1)CC2 [Example 281, (S)-1-(4-fluorobenzyl)-N-(2,3,4-trimethyl-5-oxo-5,6,7,8-tetrahydro-4H-pyrazolo[1,5-a][1, 3]diazepin-6-yl)-1H-1,2,4-triazole-3-carboxamide] | 7.41
CN1C(=O)[C@@H](NC(=O)c2nnc(Cc3ccccc3)o2)CCn2nc(C3CC3)cc21 [Example 282, (S)-5-benzyl-N-(2-cyclopropyl-4-methyl-5-oxo-5,6,7,8-tetrahydro-4H-pyrazolo[1,5-a][1,3]diazepin-6-yl)-1,3,4-oxadiazole-2-carboxamide] | 7.23
CN1C(=O)[C@@H](NC(=O)c2ncn(Cc3ccccc3)n2)CCn2nc(C3CC3(F)F)cc21 (stereo partly drawn) [Example 283, 1-benzyl-N-((6S)-2-(2,2-difluorocyclopropyl)-4-methyl-5-oxo-5,6,7,8-tetrahydro-4H-pyrazolo[1,5-a][1,3]diazepin-6-yl)-1H-1,2,4-triazole-3-carboxamide] | 7.14
CN1C(=O)[C@H](NC(=O)c2ncn(Cc3ccccc3)n2)CCn2nc(C3CC3(F)F)cc21 (stereo partly drawn) [Example 284, 1-benzyl-N-((6R)-2-(2,2-difluorocyclopropyl)-4-methyl-5-oxo-5,6,7,8-tetrahydro-4H-pyrazolo[1,5-a][1,3]diazepin-6-yl)-1H-1,2,4-triazole-3-carboxamide] | 7.06
CN1C(=O)[C@@H](NC(=O)c2nnc(Cc3ccccc3)[nH]2)CCn2nc(C3CC3(F)F)cc21 (stereo partly drawn) [Example 285, 5-benzyl-N-((6S)-2-(2,2-difluorocyclopropyl)-4-methyl-5-oxo-5,6,7,8-tetrahydro-4H-pyrazolo[1,5-a][1,3]diazepin-6-yl)-4H-1,2,4-triazole-3-carboxamide] | 6.66
CN1C(=O)[C@H](NC(=O)c2nnc(Cc3ccccc3)[nH]2)CCn2nc(C3CC3(F)F)cc21 (stereo partly drawn) [Example 286, 5-benzyl-N-((6R)-2-(2,2-difluorocyclopropyl)-4-methyl-5-oxo-5,6,7,8-tetrahydro-4H-pyrazolo[1,5-a][1,3]diazepin-6-yl)-4H-1,2,4-triazole-3-carboxamide] | 7.03
CN1C(=O)C(NC(=O)c2ncn(Cc3ccc(Cl)cc3)n2)CCn2nc(C3CC3)cc21 (stereo not shown) [Example 288, 1-(4-chlorobenzyl)-N-(2-cyclopropyl-4-methyl-5-oxo-5,6,7,8-tetrahydro-4H-pyrazolo[1,5-a][1,3]diazepin-6-yl)-1H-1,2,4-triazole-3-carboxamide] | 7.21
CN1C(=O)C(NC(=O)c2n[nH]c(Cc3ccccc3)n2)CCn2cncc21 (stereo not shown) [Example 293, 5-benzyl-N-(1-methyl-2-oxo-2,3,4,5-tetrahydro-1H-imidazo[1,5-a][1,3]diazepin-3-yl)-1H-1,2,4-triazole-3-carboxamide] | 7.14
CN1C(=O)C(NC(=O)c2cn(Cc3ccccc3)nn2)CCn2cncc21 (stereo not shown) [Example 295, 1-benzyl-N-(1-methyl-2-oxo-2,3,4,5-tetrahydro-1H-imidazo[1,5-a][1,3]diazepin-3-yl)-1H-1,2,3-triazole-4-carboxamide] | 6.93
CC(c1cnc2[nH]nc(C(=O)N[C@H]3COc4ccccc4N(C)C3=O)c2c1)C(F)(F)F (stereo partly drawn) [Example 296, N—((S)-5-methyl-4-oxo-2,3,4,5-tetrahydrobenzo[b][1,4]oxazepin-3-yl)-5-(1,1,1-trifluoropropan-2-yl)-1H-pyrazolo[3,4-b]pyridine-3-carboxamide] | 7.21
CN1C(=O)[C@@H](NC(=O)c2ncn(Cc3ccccc3)n2)CCn2cncc21 [Example 297, (S)-1-benzyl-N-(1-methyl-2-oxo-2,3,4,5-tetrahydro-1H-imidazo[1,5-a][1,3]diazepin-3-yl)-1H-1,2,4-triazole-3-carboxamide] | 7.68
CN1C(=O)[C@H](NC(=O)c2ncn(Cc3ccc(F)cc3F)n2)CCn2nc(C3CC3)cc21 [Example 298, (R)—N-(2-cyclopropyl-4-methyl-5-oxo-5,6,7,8-tetrahydro-4H-pyrazolo[1,5-a][1,3]diazepin-6-yl)-1-(2,4-difluorobenzyl)-1H-1,2,4-triazole-3-carboxamide] | 5.59
CN1C(=O)[C@@H](NC(=O)c2cc3c(cn2)COC32CCOCC2)COc2ccccc21 [Example 299, (S)—N-(5-methyl-4-oxo-2,3,4,5-tetrahydrobenzo[b][1,4]oxazepin-3-yl)-2′,3′,5′,6′-tetrahydro-3H-spiro[furo[3,4-c]pyridine-1,4′-pyran]-6-carboxamide] | 7.13
Cc1nn2c(c1C)N(C)C(=O)[C@@H](NC(=O)c1nnc(Cc3ccccc3)[nH]1)CC2 [Example 300, (S)-5-benzyl-N-(2,3,4-trimethyl-5-oxo-5,6,7,8-tetrahydro-4H-pyrazolo[1,5-a][1,3]diazepin-6-yl)-4H-1,2,4-triazole-3-carboxamide] | 7.30
CN1C(=O)[C@@H](NC(=O)c2ncn(Cc3c(F)cccc3F)n2)CCn2nc(C3CC3)cc21 [Example 302, (S)—N-(2-cyclopropyl-4-methyl-5-oxo-5,6,7,8-tetrahydro-4H-pyrazolo[1,5-a][1,3]diazepin-6-yl)-1-(2,6-difluorobenzyl)-1H-1,2,4-triazole-3-carboxamide] | 7.57
